Experiment: Aqueous stability assessed as half life at pH 7.4 by HPLC
Type: physicochemical
Settings: aqueous solution

SMILES: O=C(CN1CCOCC1)[C@@H](O)[C@H](O)[C@H](O)CO
- half-life: 92 h

SMILES: O=C(CN[C@H](Cc1c[nH]c2ccccc12)C(=O)O)[C@@H](O)[C@H](O)[C@H](O)CO
- half-life: 25 h

— ChEMBL document CHEMBL1150293, “The pyridoxamine action on Amadori compounds: A reexamination of its scavenging capacity and chelating effect” (Bioorg Med Chem, 2008)
